# Experimental data as given in patent publication US7666619B2, “Compounds and methods for regulating bacterial growth and pathogenesis” (Princeton University, priority 2000, dated 2010).
# “Also recorded” adds a separate entry of the source. Read-outs that look alike come from different tables or passages of the source.
# Experiments:
# [1] = tested on: V. harveyi reporter strain BB170 (Sensor 1−, Sensor 2+); experiment: V. harveyi luminescence assay, test strain BB170 (AI-2 bioassay); type: cell-based, Vibrio harveyi; conditions: for signaling activity (induction of luminescence): control experiments, reporter strain BB170
# Protocol: FIG. 16 panels C and D show the effect of the same compounds on control strain JAF78. Strain BB170 synthesizes AI-2 starting at 4.5 hours into the assay. Light produced at the start of the assays is from AI-2 carried over from cells diluted from stationary phase. Strain JAF78 is a mutant strain in which light production is “locked on” and is unaffected by the presence or absence of autoinducer. Increase in light over the time course reflects increase in cell population density.
# Density-dependent Bioluminescence Assay. […] The cell density was measured by diluting the same aliquots of cells used for measuring luminescence, spreading the dilutions onto solid LM medium, incubating the plates overnight at 30° C., and counting the resulting colonies the following day. Relative Light Units are (counts min^−1 ml^−1×10^3)/(colony forming units ml^−1). Cell-free culture supernatants from V. harveyi or S. typhimurium strains were added to a final concentration of 10% (v/v) at the time of the first measurement. In control experiments, 10% (v/v) of AB medium, LB medium or LB medium containing 0.5% glucose was added instead of cell-free culture fluids.
# Assay for Production of Signaling Molecules. Cell-free culture fluids from E. coli, S. typhimurium and V. harveyi strains were tested for the presence of signaling substances that could induce luminescence in the V. harveyi reporter strain BB170 or BB886. In the assays, 10 μl of cell-free culture fluids from E. coli AB1157, E. coli DH5α, and S. typhimurium LT2 strains grown and harvested as described above were added to 96-well microtiter dishes. The V. harveyi reporter strain BB170 or BB886 was grown for 16 h at 30° C. with aeration in AB medium, diluted 1:5000 into fresh AB medium, and 90 μl of the diluted cells were added to the wells containing the E. coli and S. typhimurium cell-free culture fluids. Positive control wells contained 10 μl of cell-free culture fluid from strain V. harveyi BB152 (Autoinducer-1^−, Autoinducer-2^+) or V. harveyi BB120 (Autoinducer-1^+, Autoinducer-2^+). Negative control wells contained 10 μl of sterile growth medium. The microtiter dishes were shaken in a rotary shaker at 175 rpm at 30° C.
# Bioluminescence Assay. […] Cell-free culture fluids from V. harveyi, E. coli, or S. typhimurium strains to be tested for AI-2 activity were prepared as described above, and assayed at 10% (v/v). AI-2 activity is reported as the fold-induction of the reporter strain over background, or as the percent of the activity obtained from V. harveyi BB120 (wild type) cell-free culture fluid.
# [2] = tested on: V. harveyi strains MM32, BB120, BB170; experiment: Microtiter crystal violet biofilm formation assay; type: cell-based, Vibrio harveyi; conditions: null mutant (AI-1−/AI-2−) V. harveyi
# Protocol: Biofilm formation was measured using a microtiter-based assay. Free-swimming (planktonic) bacteria were cultured in AB or LB media supplemented with glucose in 96 well microtiter dishes. Biofilms typically formed along the walls of the wells at the interface of the liquid and air phase. At the end of the incubation, aliquots of a crystal violet solution (stock 0.1%) were added to the wells to stain both the adherent and the non-adherent cells. The wells were then washed with deionized water to remove non-adherent cells, and the bound crystal violet solubilized with 200 microliters of water. Absorbance reading at 600 nm (A600) were used to quantitate the amount of crystal violet dye that had adhered to the biofilms. When indicated, synthetic AI-2 was added to the wells at the beginning of the cultures.
# Various amounts of synthetic AI-2 were added to the initial free-swimming bacterial cultures in LB media supplemented with glucose, and biofilm formation measured at the end of the incubation.
# [3] = tested on: sensor-1+, sensor-2− mutant (BB886); experiment: Microtiter luminescence assay with AI-1 and strain BB886; type: cell-based, Vibrio harveyi; conditions: non self-stimulating strain BB886
# [4] = tested on: AI-2 mediated luciferase expression in V. harveyi; experiment: V. harveyi bioassay, tester and control strains, bioluminescence intensity; type: cell-based, Vibrio harveyi
# Protocol: The results are normalized to cell count and control strain.
# The inhibition of an AI-2 mediated response was further measured in the V. harveyi bioassay. Compound QXP031 was tested against V. harveyi tester and control strains. […] The results are normalized to cell count and any minimal effects seen in the control strain. The fold difference in bioluminescence intensity at the different drug concentrations versus no drug control is indicated above the appropriate bars in FIG. 21.
# [5] = tested on: CAMP expression by S. pyogenes 19615; experiment: CAMP assay (S. aureus 25923 streak, S. pyogenes 19615 streaks, sheep blood agar); type: cell-based, Streptococcus pyogenes
# Protocol: The horizontal streak is S. aureus 25923 and the vertical streaks are S. pyogenes 19615. Filter disks containing either DMSO no drug control or compound QXP031 were applied to plates and incubated anaerobically overnight at 37° C.
# Many streptococci produce a diffusible extracellular protein (CAMP) that acts synergistically with staphylococcal beta lysin to lyse erythrocytes on trypticase soy agar plates containing sheep blood. Hemolysis of erythrocytes is an important component of the virulence response in many pathogenic bacteria. A single straight streak of a beta lysin producing S. aureus strain is made. Steptococci to be tested are streaked perpendicular to the S. aureus streak.
# [6] = tested on: S. pyogenes 19615 proteolytic activity; experiment: Skim milk plate proteinase assay; type: cell-based, Streptococcus pyogenes; conditions: filter disk, anaerobic overnight 37° C.
# Protocol: Skim milk containing plates were overlaid with top agar containing S. pyogenes 19615. Filter disks containing either DMSO no compound control or compound QXP031 were applied to plates and incubated anaerobically overnight at 37° C.
# Proteinase activity is an important component of the virulence response in many pathogenic bacteria. Skim milk containing agar plates can be used to score for proteinase activity in a variety of bacteria. Proteolytic activity is scored as a clearing zone surrounding a test inoculum. The clearing zone is the result of the proteolytic breakdown of the milk proteins suspended in the agar plates. Regions where milk protein is not broken retain a milky opaque appearance.
# [7] = tested on: Streptococcus pyogenes ATCC 19615; experiment: Antibiotic susceptibility assay (NCCLS broth microdilution); type: cell-based; conditions: for MIC: Streptococcus pyogenes, ATCC19615
# Protocol: (§1) Antimicrobial susceptibility testing was conducted according to the National Committee for Clinical Laboratory Standards (NCCLS) reference method “Broth Dilution Procedure (Microdilution)” published January 1977 (UPDATE VERSION). The method yields a minimum inhibitory dose (MIC) required for complete inhibition of bacterial growth. MICs were determined using a dilution series of antibiotic, in which all of the wells contained a constant concentration of the inhibitor compound was maintained. In addition, before the instant susceptibility tests were performed, the inhibitor compounds were tested in the appropriate inhibitor screens (See, for example, FIG. 32 for the AI-2 inhibitor 2-ethyl-4-hydroxy-5-methyl-3(2H)-furanone). […] Experiments were conducted in 96 well microtiter plates using a final volume of 0.1 ml/well. Assays were conducted using either Mueller-Hinton broth, Todd-Hewitt broth, or Nutrient Broth (Difco). The bacterial innoculum was prepared from a log phase overnight culture of Streptococcus pyogenes ATCC 19615 or Staphylococcus aureus ATCC 25923. Turbidity of the cultures was adjusted with saline to 0.05 McFarland standard (10^7 CFU/ml), and 5 microliters of this innoculum was added to each well. The inhibitor compounds were prepared by dissolving a stock solution in water. Working stocks of quorum inhibitors compounds were made by diluting the stock solutions with bacterial broth. Sodium salts of the antibiotics were used in these experiments. A stock solution (10 mg/ml) was prepared as stipulated by the manufacturer by dissolving a weighed amount of antibiotic in water or DMSO. All antibiotics were added in two-fold serial dilutions to a series of wells to yield final concentrations ranging from 100 μg/ml to 0.1 μg/ml. The single exception was sulfisoxazole where the range of final doses ranged from 300 μg/ml to 2.5 μg/ml. Bacterial broth was used as the diluent. The range of antibiotic concentrations used were chosen to be at and below the MIC for the antibiotic alone. Cultures were sealed and incubated for 20 hours at 37° C. MIC values were determined by spectrophotometric measurements of absorbance at 600 nm. […] Fold-changes in MIC concentration were determined by comparing the MIC for antibiotic and quorum inhibitor compounds with the MIC measured using antibiotic alone.
# [8] = tested on: Streptococcus pyogenes ATCC 19615; experiment: Cell growth monitored by absorbance at 600 nm; type: cell-based; conditions: 2.4 μg/ml or 2.5 mg/ml
# Protocol: Streptococcus pyogenes ATCC 19615 was grown in the presence of either 2.4 μg/ml or 2.5 mg/ml of compound QXP-035. Cell growth was monitored by taking periodic measurements of absorbance at 600 nm.
# [9] = tested on: MM32 indicator strain (LuxS−, LuxN−) of V. harveyi; experiment: MM32 bioluminescence assay; type: cell-based, Vibrio harveyi; conditions: autoinducer-2 25 μg/ml, QXP-048 25 μg/ml
# Protocol: The MM32 indicator strain (LuxS−, LuxN−) of V. harveyi was incubated with various doses of AI-2 and the bioluminescence signal measured at various time points during a 6-hour incubation.
# Exogenous synthetic autoinducer-2 was added at the outset of the assay at a final concentration of 25 μg/ml. QXP-048 was added at the outset of the assay at a final concentration of 25 μg/ml. […] Exogeneous synthetic autoinducer-2 was added at the outset of the assay to a final concentration of 25 μg/ml. QXP-048 was added at the outset of the assay at a final concentration of 25 μg/ml.
# The invention provides a luxN− and luxS− strain of V. harveyi, designated MM32, for identifying inhibitors of the quorum-sensing pathway. […] Further, since MM32 cannot produce AI-2, addition of exogenous AI-2 or its analogs allows rapid identification of inhibitors of AI-2.
# [10] = tested on: Staphylococcus aureus ATCC 25923; experiment: Antibiotic susceptibility assay (NCCLS broth microdilution); type: cell-based; conditions: with 2-ethyl-4-hydroxy-5-methyl-3(2H)-furanone at 25 μg/ml
# Protocol: as §1
# AI-2 = experiment: Inhibition of AI-2 initiated activation of a biochemical pathway
# Excerpt: It is an object of the invention to provide compounds and methods for regulating the activity of autoinducer-2 receptors such as LuxP or LuxQ. Compounds of the invention include those that interact with LuxP or LuxQ. Specifically, the invention provides a method for the regulation of LuxP or LuxQ protein resulting in the regulation of bacterial cell growth or the regulation of bacterial pathogenicity by regulating the expression of a factor associated with bacterial virulence. The method of the invention envisions contacting LuxP or LuxQ with pentenomycin, or derivatives thereof, such that LuxP or LuxQ activity is regulated. Pentenomycin has previously been identified as having antibiotic activity. […] The chemical structure of pentenomycin, and derivatives thereof (see below), is/are similar to that of the structure of autoinducer-2 as identified in the present study.
smiles,measurement,setting,value
O=C(O)CCC(=O)C(=O)O [-ketoglutarate],signaling activity (induction of luminescence),[1],lacked activity
"C[C@@H](O)CC(=O)N[C@H]1CCOC1=O [AI-1, N-(3-hydroxybutanoyl)-L-homoserine lactone, reference compound]",biofilm production after addition to the medium,[2],allows (AI-1−/AI-2−) V. harveyi to produce biofilm
same,lowest concentration to which the assay was sensitive,[3],100 nM
OC[C@H]1OC(O)[C@H](O)[C@@H](O)[C@@H]1O (stereo partly shown) [Glucose],signaling activity (induction of luminescence),[1],lacked activity
"CC(=O)O[C@H]1C=CC(=O)C1 [QXP031, (R)-4-acetoxy-cyclopent-2-eneone]",effect on AI-2 mediated luciferase expression,[4]; at the concentrations indicated in FIG. 21,specifically inhibited
same,specific decrease in bioluminescence as a result of AI-2 inhibition,"[4]; various concentrations, normalized to cell count and control strain",up to 15000 fold
same,CAMP score,[5],negative CAMP score
same,hemolysis in CAMP assay,"[5]; filter disk, anaerobic overnight 37° C.",complete inhibition of hemolysis
same,proteolysis of milk protein,[6],inhibition of S. pyogenes proteolytic activity; also recorded: proteolysis was inhibited
"CCC1OC(C)=C(O)C1=O (stereo not shown) [QXP-035, 2-ethyl-4-hydroxy-5-methyl-3(2H)-furanone]",effect on AI-2-dependent bioluminescence,"[1]; BB170, various amounts, monitored over time",inhibition of bioluminescence
same,MIC,"[7]; compound alone, read-out: MIC",> 100 µg/mL
same,effect on cell growth,[8],did not inhibit cell growth
"COC1(c2ccccc2)OC=C(c2ccccc2)C1=O (stereo not shown) [QXP-048, 2-methoxy-2,4-diphenyl-3(2H)furanone]",effect on signal from exogenous synthetic autoinducer-2,[9],inhibitory capability
CC(=O)O [acetate],signaling activity (induction of luminescence),[1],lacked activity
CC1(C)S[C@@H]2[C@H](NC(=O)[C@H](N)c3ccccc3)C(=O)N2[C@H]1C(=O)O [ampicillin],MIC of antibiotic combined with quorum inhibitor,[10],0.4 µg/mL
N[C@H]1CCOC1=O [homoserine lactone],signaling activity (induction of luminescence),[1],lacked activity
O=C1C=C[C@H](O)[C@@]1(O)CO [pentenomycin],effect on AI-2 initiated activation of a biochemical pathway,AI-2,acts as an inhibitor
Cc1noc(NS(=O)(=O)c2ccc(N)cc2)c1C [sulfisoxazole],synergy in combination with 2-ethyl-4-hydroxy-5-methyl-3(2H)-furanone,[7],marked synergies
same,MIC,"[7]; compound alone, read-out: MIC",~300 µg/mL
same,MIC of antibiotic combined with quorum inhibitor,[7]; with 2-ethyl-4-hydroxy-5-methyl-3(2H)-furanone at 100 micrograms per milliliter,approximately 100 μg/ml
CN[C@H](CC(C)C)C(=O)N[C@H]1C(=O)N[C@@H](CC(N)=O)C(=O)N[C@H]2C(=O)N[C@H]3C(=O)N[C@H](C(=O)N[C@H](C(=O)O)c4cc(O)cc(O)c4-c4cc3ccc4O)[C@H](O)c3ccc(c(Cl)c3)Oc3cc2cc(c3O[C@@H]2O[C@H](CO)[C@@H](O)[C@H](O)[C@H]2O[C@H]2C[C@](C)(N)[C@H](O)[C@H](C)O2)Oc2ccc(cc2Cl)[C@H]1O [vancomycin],synergy in combination with 2-ethyl-4-hydroxy-5-methyl-3(2H)-furanone,[7],marked synergies
same,MIC,[7],~100 µg/mL
same,MIC of antibiotic combined with quorum inhibitor,"[7]; with 2-ethyl-4-hydroxy-5-methyl-3(2H)-furanone at 5 μg/ml, compared with vancomycin alone",approximately the same MIC
same,MIC of antibiotic combined with quorum inhibitor,[7]; with 2-ethyl-4-hydroxy-5-methyl-3(2H)-furanone at 12.5 μg/ml,approximately 1.6 micrograms/milliliter
same,MIC of antibiotic combined with quorum inhibitor,"[7]; with 2-ethyl-4-hydroxy-5-methyl-3(2H)-furanone at 50 μg/ml, compared with 12.5 μg/ml",the same MIC
